Results taken from PMC9328652, “A novel class of fast‐acting antimalarial agents: Substituted 15‐membered azalides” (British Journal of Pharmacology, 2020).
In brackets after ≈: the same amount, converted by molar mass. Where two headings read alike, the source gives them in different places. Marks after values point to notes of the source that are not given here.

Assays:
[1] = tested on: P. falciparum 3D7^0087/N9; assay: P. falciparum murine model (humanized mice), 4-day test; assay type: in vivo, Plasmodium falciparum; settings: for ED90: oral QD for 4 days, parasitaemia at day 7, humanized mice
Protocol: The in vivo efficacy evaluation of the compounds was performed using a P. falciparum murine model of malaria in non‐myelodepleted NOD. Cg‐Prkdc^ scid –β2m^ tm1Unc ‐scid IL2R_null (NODscidβ2m^−/−) mice engrafted with human erythrocytes as described previously (Angulo‐Barturen et al., [2008]; Jimenez‐Diaz et al., [2005]; Jimenez‐Diaz et al., [2009]; Jimenez‐Diaz et al., [2009]), as this model enables testing of P. falciparum strains with high infectious burden. Briefly, groups of three mice engrafted with human erythrocytes were infected with 20 × 10^6 of P. falciparum 3D7^0087/N9‐infected erythrocytes/mouse by intravenous route. The mice were randomly assigned to their corresponding experimental groups. The treatment of oral doses QD for 4 days started at day 3 after infection. Parasitaemia was measured at days 3, 5, and 7 post‐infection. The therapeutic efficacy was expressed as the dose (mg·kg^−1) that reduced parasitaemia in peripheral blood of mice at day 7 after infection by 90% (ED90) with respect to vehicle‐treated mice. Chloroquine was included as quality control for each in vivo assay. Efficacy is expressed as the daily dose (ED90), or equivalent exposure (AUCED90), administered to mice necessary to reduce parasitaemia at day 7 by 90% with respect to vehicle‐treated mice. The ED90 is estimated by fitting a four‐decade logistic equation for the log10 [parasitaemia at day 7] versus the log10 [dose] using GraphPad Prism 5.01 (GraphPad Software Inc., San Diego, CA).

[2] = tested on: Plasmodium falciparum T9/94 (CQ); assay: [3H]hypoxanthine incorporation antimalarial assay, strain T9/94; assay type: cell-based; settings: 72 h, read-out: IC50 T9/94 (CQ)
Protocol: (§1) The activity of the test compounds against P. falciparum in vitro was determined using the tritiated hypoxanthine incorporation assay of Desjardins et al. and additionally modified by Milhous and Chulay (Chulay, Haynes, & Diggs, [1983]; Milhous, Weatherly, Bowdre, & Desjardins, [1985]).
(§2) Compounds were dissolved in DMSO and subsequently diluted in the culture medium (RPMI 1640) supplemented with 10% v/v human plasma. Serial 1:2 drug dilutions were prepared in triplicate in microtitre plates. Culture medium supplemented with 10% v/v human plasma and type A Rhesus positive human erythrocytes infected with P. falciparum strains was added to yield a haematocrit of 3% and a parasitaemia of 0.25–0.55%. The plates were incubated at 37°C in a modular incubator flushed with a mixture of 5% oxygen, 3% carbon dioxide, and 92% nitrogen for 48 h, and then [^3H]hypoxanthine was added to give a final concentration of 12.5–16 μCi·ml^−1. After incubation for additional 24 h, particulate matter was harvested on fibreglass strips and hypoxanthine incorporation determined by scintillation spectrophotometry. […] Delayed death experiments were performed by this standard method but extending the incubation time with the drug up to 96 h.

[3] = tested on: S. pyogenes 3565; assay: Antibacterial screen, broth microdilution; assay type: cell-based; settings: Streptococcus pyogenes
Protocol: (§3) Antibacterial activity of compounds was determined by a standard broth microdilution method (Clinical Laboratory Standard Institute CLSI, [2009]), except that for Streptococcus strains lysed blood was substituted with 5% horse serum in the testing medium. […] The activities are expressed as minimum inhibitory concentrations (MICs) in units of μg·ml^−1. […] The organisms tested represented macrolide sensitive Gram‐positive pathogens that are mainly targeted by macrolide antibiotics. Tested streptococci were clinical isolates Streptococcus pneumoniae SP030 and Streptococcus pyogenes 3565 from internal strain collection, and other strains were obtained from ATCC bioresource centre, Staphylococcus aureus ATCC13709, Haemophilus influenzae ATCC49247, and Moraxella catarrhalis ATCC23246. Double dilutions of tested compounds were prepared using TECAN Genesis 150. Bacteria were grown on appropriate agar plates (Becton Dickinson, USA)—Columbia agar with 5% sheep blood for streptococci and M. catarrhalis, Mueller‐Hinton chocolate agar for H. influenzae , and Mueller‐Hinton agar for staphylococci.

[4] = tested on: H. influenzae ATCC49247; assay: Antibacterial screen, broth microdilution; assay type: cell-based; settings: Haemophilus influenzae
Protocol: as §3

[5] = tested on: S. aureus ATCC13709; assay: Antibacterial screen, broth microdilution; assay type: cell-based; settings: Staphylococcus aureus
Protocol: as §3

[6] = tested on: S. pneumoniae SP030; assay: Antibacterial screen, broth microdilution; assay type: cell-based; settings: Streptococcus pneumoniae
Protocol: as §3

[7] = tested on: Plasmodium falciparum 7G8 (CQ, PY); assay: [3H]hypoxanthine incorporation antimalarial assay, strain 7G8; assay type: cell-based
Protocol: as §1, §2

[8] = tested on: M. catarrhalis ATCC23246; assay: Antibacterial screen, broth microdilution; assay type: cell-based, Moraxella catarrhalis; settings: Moraxella catarrhalis, ATCC23246; broth microdilution
Protocol: as §3

[9] = tested on: Plasmodium falciparum Dd2(AZ^R); assay: [3H]hypoxanthine incorporation antimalarial assay, azithromycin-resistant mutant Dd2(AZ^R); assay type: cell-based
Protocol: as §1, §2

[10] = tested on: HepG2 cells; settings: cited from earlier work
[11] = tested on: Plasmodium falciparum Dd2 (CQ,Q,PY,S); assay: microbe, parasite or virus in culture; assay type: cell-based; settings: for Delayed death phenotype: Dd2 and Dd2(AZ^R), 48 versus 96 h; for IC50: Plasmodium falciparum
Protocol: as §1, §2

[12] = tested on: Plasmodium falciparum V1/S (CQ,PY); assay: microbe, parasite or virus in culture; assay type: cell-based; settings: 72 h, read-out: IC50 V1/S (CQ,PY)
Protocol: as §1, §2

[13] = tested on: Plasmodium falciparum K1 (CQ,PY); assay: [3H]hypoxanthine incorporation antimalarial assay, strain K1; assay type: cell-based
Protocol: as §1, §2

[14] = DD2, 48 h, read-out: IC50 Dd2(AZ^R) 48 h
[15] = DD2, 96 h, read-out: IC50 Dd2(AZ^R) 96 h
[16] = DD2, 48 h, read-out: IC50 Dd2 48 h
[17] = DD2, 72 h, read-out: IC50 Dd2 (CQ,Q,PY,S)
[18] = DD2, 96 h, read-out: IC50 Dd2 96 h
[19] = 7G8, 72 h, read-out: IC50 7G8 (CQ, PY)
[20] = K1, 72 h, read-out: IC50 K1 (CQ,PY)

CC[C@H]1OC(=O)[C@H](C)[C@@H](O[C@H]2C[C@@](C)(OC)[C@@H](O)[C@H](C)O2)[C@H](C)[C@@H](O[C@@H]2O[C@H](C)C[C@H](N(C)C)[C@H]2O)[C@](C)(O)C[C@@H](C)CN(C)[C@H](C)[C@@H](O)[C@]1(C)O [Azithromycin, reference compound]
ED90 [1]: > 200 mg/kg | IC50 [2]: 2720 nM | MIC [3]: ≤ 0.125 µg/mL | MIC [4]: 2 µg/mL (≈ 2.67 µM) | MIC [5]: 1 µg/mL (≈ 1.34 µM) | MIC [6]: ≤ 0.125 µg/mL | IC50 ([7]; 7G8, 72 h of incubation, N = 3, read-out: IC50 7G8 (CQ, PY)): 4590 nM | MIC [8]: ≤ 0.125 µg/mL | IC50 [9, 14]: 3360 nM | IC50 [9, 15]: 1480 nM | Tox50 HepG2 [10]: 203 ^b μM | Delayed death phenotype [11]: Yes | IC50 [11, 16]: 3270 nM | IC50 [11, 17]: 1590 nM | IC50 [11, 18]: 81 nM | IC50 [12]: 15900 nM | IC50 ([13]; K1, 72 h of incubation, N = 3, read-out: IC50 K1 (CQ,PY)): 2720 nM

CC[C@H]1OC(=O)[C@H](C)[C@@H](O[C@H]2C[C@@](C)(OC)[C@@H](O)[C@H](C)O2)[C@H](C)[C@@H](O[C@@H]2O[C@H](C)C[C@H](N(C)C)[C@H]2O)[C@](C)(O)C[C@@H](C)CN(CCCNc2ccnc3cc(Cl)ccc23)[C@H](C)[C@@H](O)[C@]1(C)O [Compound 1]
day of follow‐up up to which parasitaemia remained undetectable / parasite growth suppressed ([1]; humanized mice, oral 4‐day treatment): ≥ 24 days | IC50 [2]: 13 nM | MIC [3]: ≤ 0.125 µg/mL | MIC [4]: 16 µg/mL (≈ 16.8 µM) | MIC [5]: 1 µg/mL (≈ 1.05 µM) | MIC [6]: ≤ 0.125 µg/mL | IC50 [7, 19]: 37 nM | MIC [8]: 2 µg/mL (≈ 2.1 µM) | IC50 [9, 14]: 21 nM | IC50 [9, 15]: 11 nM | Tox50 HepG2 ([10]; ref Peric et al. ([2012])): 30 ^c μM | Delayed death phenotype [11]: No | IC50 [11, 16]: 17 nM | IC50 [11, 17]: 25 nM | IC50 [11, 18]: 12 nM | IC50 [12]: 28 nM | IC50 [13, 20]: 23 nM

CC[C@H]1OC(=O)[C@H](C)[C@@H](O)[C@H](C)[C@@H](O[C@@H]2O[C@H](C)C[C@H](N(C)C)[C@H]2OCCCNc2ccnc3ccccc23)[C@](C)(O)C[C@@H](C)CN[C@H](C)[C@@H](O)[C@]1(C)O [Compound 3]
ED90 [1]: 23.9 mg/kg | IC50 [2]: 21 nM | MIC [3]: > 64 µg/mL | MIC [4]: > 64 µg/mL | MIC [5]: > 64 µg/mL | MIC [6]: > 64 µg/mL | IC50 [7, 19]: 17 nM | MIC [8]: > 64 µg/mL | IC50 [9, 14]: 27 nM | IC50 [9, 15]: 23 nM | Tox50 HepG2 ([10]; ref Pesic et al. ([2012])): 83 ^b μM | Delayed death phenotype [11]: No | IC50 [11, 16]: 24 nM | IC50 [11, 17]: 30 nM | IC50 [11, 18]: 22 nM | IC50 [12]: 30 nM | IC50 [13, 20]: 24 nM
